Data from a compilation of properties of binary mixtures (doi:10.1007/s10953-014-0257-1).

Assay: xn = mol fraction of the nth substance listed
Conditions: 101 kPa

c1ccc2sccc2c1 + CCCC[N+]1(C)CCCC1.N#C[C-](C#N)C#N
viscosity (308.15 K, x1 = 1): 2.94 mPa·s | viscosity (318.15 K, x1 = 1): 2.06 mPa·s | viscosity (328.15 K, x1 = 1): 1.74 mPa·s | viscosity (338.15 K, x1 = 1): 1.49 mPa·s | viscosity (348.15 K, x1 = 1): 1.29 mPa·s | viscosity (358.15 K, x1 = 1): 1.14 mPa·s

CCCC[N+]1(C)CCCC1.N#C[C-](C#N)C#N + c1ccc2sccc2c1
viscosity (308.15 K, x2 = 0.1112): 18.8 mPa·s | viscosity (308.15 K, x2 = 0.2212): 17 mPa·s | viscosity (308.15 K, x2 = 0.3565): 14.78 mPa·s | viscosity (308.15 K, x2 = 0.6111): 10.45 mPa·s | viscosity (308.15 K, x2 = 0.6767): 9.23 mPa·s | viscosity (318.15 K, x2 = 0): 15.44 mPa·s | viscosity (318.15 K, x2 = 0.1112): 14.1 mPa·s | viscosity (318.15 K, x2 = 0.2212): 12.77 mPa·s | viscosity (318.15 K, x2 = 0.3565): 11.13 mPa·s | viscosity (318.15 K, x2 = 0.5267): 9.01 mPa·s | viscosity (318.15 K, x2 = 0.6111): 7.87 mPa·s | viscosity (318.15 K, x2 = 0.6767): 6.89 mPa·s | viscosity (328.15 K, x2 = 0): 12 mPa·s | viscosity (328.15 K, x2 = 0.1112): 10.97 mPa·s | viscosity (328.15 K, x2 = 0.2212): 9.95 mPa·s | viscosity (328.15 K, x2 = 0.3565): 8.69 mPa·s | viscosity (328.15 K, x2 = 0.6111): 6.19 mPa·s | viscosity (328.15 K, x2 = 0.6767): 5.41 mPa·s | viscosity (338.15 K, x2 = 0): 9.59 mPa·s | viscosity (338.15 K, x2 = 0.1112): 8.77 mPa·s | viscosity (338.15 K, x2 = 0.2212): 7.96 mPa·s | viscosity (338.15 K, x2 = 0.5267): 5.68 mPa·s | viscosity (338.15 K, x2 = 0.6111): 4.98 mPa·s | viscosity (338.15 K, x2 = 0.6767): 4.36 mPa·s | viscosity (348.15 K, x2 = 0): 7.81 mPa·s | viscosity (348.15 K, x2 = 0.1112): 7.16 mPa·s | viscosity (348.15 K, x2 = 0.2212): 6.49 mPa·s | viscosity (348.15 K, x2 = 0.3565): 5.67 mPa·s | viscosity (348.15 K, x2 = 0.5267): 4.65 mPa·s | viscosity (348.15 K, x2 = 0.6111): 4.1 mPa·s | viscosity (348.15 K, x2 = 0.6767): 3.59 mPa·s | viscosity (358.15 K, x2 = 0): 6.47 mPa·s | viscosity (358.15 K, x2 = 0.1112): 5.93 mPa·s | viscosity (358.15 K, x2 = 0.2212): 5.38 mPa·s | viscosity (358.15 K, x2 = 0.3565): 4.74 mPa·s | viscosity (358.15 K, x2 = 0.5267): 3.88 mPa·s | viscosity (358.15 K, x2 = 0.6111): 3.44 mPa·s | viscosity (358.15 K, x2 = 0.6767): 3.03 mPa·s
